Experimental data taken from ChEMBL document CHEMBL1201862, “PubChem BioAssay data set” (2004).
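Each compound was tested at five concentrations against cells in 96-well plates for 48 hours. Abbreviation: GI50, concentration required for 50% inhibition of growth.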 Active and inactive are the calls of the source. Rule as the data show it: active = GI50 up to about 1.1 µM and inactive = higher.

Columns and labels:
Assay in all cases: NCI anticancer screen, dose series, 48 h
NCI-H460 = tested on: NCI-H460
UACC-62 = tested on: UACC-62
RXF 393 = tested on: RXF 393
NCI/ADR-RES = tested on: NCI/ADR-RES
OVCAR-4 = tested on: OVCAR-4
HT-29 = tested on: HT-29
DMS-273 = tested on: DMS-273
MOLT-4 = tested on: MOLT-4
SF-295 = tested on: SF-295
HL-60 = tested on: HL-60
SF-268 = tested on: SF-268
MCF7 = tested on: MCF7
NCI-H226 = tested on: NCI-H226
CCRF-CEM = tested on: CCRF-CEM
SK-OV-3 = tested on: SK-OV-3
COLO 205 = tested on: COLO 205
KM12 = tested on: KM12
A498 = tested on: A498
KM-20L2 = tested on: KM-20L2
CAKI-1 = tested on: CAKI-1
OVCAR-3 = tested on: OVCAR-3
A549 = tested on: A549
U-251 = tested on: U-251
UACC-257 = tested on: UACC-257
NCI-H522 = tested on: NCI-H522
SN12C = tested on: SN12C
SW-620 = tested on: SW-620
NCI-H23 = tested on: NCI-H23
HCT-116 = tested on: HCT-116
EKVX = tested on: EKVX
LOX IMVI = tested on: LOX IMVI
IGROV-1 = tested on: IGROV-1
HCC 2998 = tested on: HCC 2998
SK-MEL-2 = tested on: SK-MEL-2
HOP-18 = tested on: HOP-18
SNB-19 = tested on: SNB-19
SF-539 = tested on: SF-539
RPMI-8226 = tested on: RPMI-8226
HCT-15 = tested on: HCT-15
Malme-3M = tested on: Malme-3M
SK-MEL-5 = tested on: SK-MEL-5
OVCAR-5 = tested on: OVCAR-5
SK-MEL-28 = tested on: SK-MEL-28
XF498 = tested on: XF498
HOP-62 = tested on: HOP-62
HOP-92 = tested on: HOP-92
K562 = tested on: K562
M19-MEL = tested on: M19-MEL
UO-31 = tested on: UO-31
SNB-78 = tested on: SNB-78
OVCAR-8 = tested on: OVCAR-8
DMS-114 = tested on: DMS-114
SNB-75 = tested on: SNB-75
DLD-1 = tested on: DLD-1
TK-10 = tested on: TK-10
M14 = tested on: M14
786-0 = tested on: 786-0
ACHN = tested on: ACHN
SR = tested on: SR
LXFL 529 = tested on: LXFL 529

Measured: GI50

CN(C)CCNC(=O)c1cccc2c1C(=O)c1ccccc1C2=O
30.7 µM: HCT-15
inactive: NCI-H460 29.6 µM | UACC-62 21.4 µM | RXF 393 55 µM | NCI/ADR-RES 27.4 µM | OVCAR-4 28.2 µM | HT-29 26.2 µM | DMS-273 23.7 µM | MOLT-4 20.5 µM | SF-295 33.7 µM | HL-60 20.6 µM | SF-268 > 100 µM | MCF7 16.2 µM | NCI-H226 > 94 µM | CCRF-CEM 23.8 µM | SK-OV-3 58.9 µM | COLO 205 16 µM | KM12 > 58.1 µM | A498 > 100 µM | KM-20L2 28 µM | CAKI-1 32.4 µM | OVCAR-3 19.3 µM | A549 37.2 µM | U-251 31.7 µM | UACC-257 19.5 µM | NCI-H522 25.1 µM | SN12C 33.7 µM | SW-620 28.9 µM | NCI-H23 22 µM | HCT-116 25.1 µM | EKVX 63.8 µM | LOX IMVI 25.6 µM | IGROV-1 26.4 µM | HCC 2998 39.1 µM | SK-MEL-2 > 37.3 µM | HOP-18 > 100 µM | SNB-19 28 µM | SF-539 40.6 µM | RPMI-8226 50.9 µM | Malme-3M 13.1 µM | SK-MEL-5 20.5 µM | OVCAR-5 61.5 µM | SK-MEL-28 45.3 µM | XF498 > 100 µM | HOP-62 > 31.6 µM | HOP-92 23.8 µM | K562 19.1 µM | M19-MEL 20 µM | UO-31 54 µM | SNB-78 24.9 µM | OVCAR-8 29.4 µM | DMS-114 15.7 µM | SNB-75 > 100 µM | DLD-1 25.5 µM

CSc1nc2c(nc(N)n2C2OC(CO)C(O)C(O)C2O)c(=O)n1C (stereo not drawn)
inactive: NCI-H460 > 100 µM | UACC-62 > 100 µM | RXF 393 > 100 µM | OVCAR-4 > 100 µM | HT-29 > 100 µM | MOLT-4 > 100 µM | SF-295 > 100 µM | HL-60 > 100 µM | SF-268 > 100 µM | TK-10 > 100 µM | NCI-H226 > 100 µM | CCRF-CEM > 100 µM | SK-OV-3 > 100 µM | COLO 205 > 100 µM | KM12 > 100 µM | A498 > 100 µM | M14 > 100 µM | KM-20L2 > 100 µM | CAKI-1 > 100 µM | 786-0 > 100 µM | OVCAR-3 > 100 µM | A549 > 100 µM | U-251 > 100 µM | UACC-257 > 100 µM | NCI-H522 > 100 µM | SN12C > 100 µM | SW-620 > 100 µM | NCI-H23 > 100 µM | HCT-116 > 100 µM | EKVX > 100 µM | LOX IMVI > 100 µM | IGROV-1 > 100 µM | HCC 2998 > 100 µM | HOP-18 > 100 µM | SNB-19 > 100 µM | SF-539 > 100 µM | ACHN > 100 µM | Malme-3M > 100 µM | SK-MEL-5 > 100 µM | SK-MEL-28 > 100 µM | XF498 > 100 µM | HOP-62 > 100 µM | SR > 100 µM | HOP-92 > 100 µM | K562 > 100 µM | M19-MEL > 100 µM | UO-31 > 100 µM | SNB-78 > 100 µM | OVCAR-8 > 100 µM | DMS-114 > 100 µM | SNB-75 > 100 µM | LXFL 529 > 100 µM | DLD-1 > 100 µM

O=C(O)Cc1cc(=O)[nH]c2c1C(=O)CCC2
> 100 µM: HCT-15
inactive: NCI-H460 > 100 µM | RXF 393 > 100 µM | HT-29 > 100 µM | DMS-273 > 100 µM | MOLT-4 > 100 µM | SF-295 > 100 µM | HL-60 > 100 µM | SF-268 > 100 µM | TK-10 > 100 µM | NCI-H226 > 100 µM | CCRF-CEM > 100 µM | SK-OV-3 > 100 µM | COLO 205 > 100 µM | KM12 > 100 µM | M14 > 100 µM | KM-20L2 > 100 µM | 786-0 > 100 µM | OVCAR-3 > 100 µM | U-251 > 100 µM | UACC-257 > 100 µM | NCI-H522 > 100 µM | SN12C > 100 µM | SW-620 > 100 µM | NCI-H23 > 100 µM | EKVX > 100 µM | IGROV-1 > 100 µM | HCC 2998 > 100 µM | SK-MEL-2 > 100 µM | HOP-18 > 100 µM | SNB-19 > 100 µM | RPMI-8226 > 100 µM | ACHN > 100 µM | Malme-3M > 100 µM | SK-MEL-5 > 100 µM | OVCAR-5 > 100 µM | SK-MEL-28 > 100 µM | XF498 > 100 µM | SR > 100 µM | HOP-92 > 100 µM | K562 > 100 µM | M19-MEL > 100 µM | UO-31 > 100 µM | OVCAR-8 > 100 µM | LXFL 529 > 100 µM | DLD-1 > 100 µM
